The results in this text go back to US4775691A, “4H-benzo[4,5]cyclohepta[1,2-b]thiophene derivatives” (Sandoz Ltd., priority 1985, dated 1988).

The test system of assay [1] is established adjuvant arthritis in the rat. In words: Adjuvant arthritis test in the rat (Test A), anti-inflammatory activity. Format: in vivo. The settings on record: for ED50: read-out: ED50, Test A. From the text:
For this test, adjuvant arthritis is induced according to the method of Pearson and Wood, "Arthr.

Assay [2] relates to LPS (E. coli) induced fever in the rat. Nature of the assay: LPS (E. coli) induced fever test in the rat (Test B), anti-pyretic activity. It is filed as in vivo, rat (Sprague-Dawley). To be noted: for ED50: Escherichia coli, 2 h, read-out: ED50, Test B. The protocol: For this test male rats (Sprague-Dawley) of 130-180 g are fasted overnight. Body temperature is measured the following morning using a rectal probe connected to a telethermometer. […] Body temperature is measured 2 hours later and this value taken as the initial temperature. 6 hours after injection, the test animals receive an oral dosage of the test substance suspended in 0.5% tragacanth or tragacanth alone (control). Body temperature is again measured after a further 2 hours.

Assay [3] relates to arthritis pain in the rat. Nature of the assay: Arthritis pain test in the rat (Test C), analgesic activity. Format: in vivo, rat (OFA). To be noted: for ED50: read-out: ED50, Test C. The protocol:
For this test male rats (OFA) of 110-120 g are treated with 0.1 ml of a Myobacterium smegmatis suspension in paraffin oil (0.6 mg Mycobact./0.1 ml oil) injected i.c. into the tail root. Market arthritis in the hind-paws develops ca. 12 days after treatment. 30 mins. before administration of test-substance, control measurement is performed by flexing the foot joint of the right or left hind-paw using a Statham transducer until volcalisation occurs. […] Test substance is administered orally and the flexion procedure repeated 1, 3 and 5 hours subsequently. The pressure at which vocalisation occurs is noted, the value recorded for each rat at each interval being the average value of three successive measurements. Animals in which the vocalisation threshold is doubled with respect to the control measurement are considered to be protected. The ED50 estimated for each post-treatment time according to the Probit method is taken as the dosage at which 50% of animals are protected. Active agents of the invention are active in this test at dosages of from 3.2 to 100 mg/kg.

Setting [4] is: fraction of commonly employed acetylsalicylic acid dosage.

Like-named read-outs stand apart in the source and are kept apart here.

Regarding `COC1=Cc2ccccc2/C(=C\C(=O)O)c2cc(Cl)sc21` [Compound A, [2-chloro-10-methoxy-4H-benzo[4,5]-cyclohepta[1,2-b]thiophen-4-ylidene]acetic acid (E)-isomer], the ED50 (usually the dose at which the effect has come halfway, by size or by number of responders) in assay [1] (established adjuvant arthritis, rat) came out at 10 ± 2 mg/kg; in assay [2] (oral, rat, dosage at which increase in rectal temperature is 50% of control group), 14 ± 5 mg/kg; in assay [3] (oral, rat, dosage at which 50% of animals are protected (vocalisation threshold doubled), post-treatment time not stated), 18 mg/kg. Moreover, the “indicated daily dosage relative to acetylsalicylic acid, anti-inflammatory therapy” value in assay [1] (setting [4]) is recorded as 1/24. The “indicated daily dosage relative to acetylsalicylic acid, anti-pyretic therapy” value in assay [2] (setting [4]) is 1/10. For the same molecule, the “indicated daily dosage relative to acetylsalicylic acid, analgesic therapy” value in assay [3] (setting [4]) is 1/5.

`CC(=O)Oc1ccccc1C(=O)O` [Compound B, acetyl-salicylic acid, reference compound]: the ED50 in assay [1] (Rattus norvegicus) came out at 240 mg/kg; in assay [2] (po), 161 mg/kg; in assay [3] (Rattus norvegicus, po), 90 mg/kg.
